Source: the RepoRT retention time repository (doi:10.1016/j.jhazmat.2019.121712)

experiment: Thermo Scientific Acclaim RSLC 120 C18, 100 × 2.1 mm, 2.2 µm, 30 °C; A: 90% water + 10% methanol + 0.01% formic acid + 5 mM ammonium formate; B: methanol + 0.01% formic acid + 5 mM ammonium formate; gradient (min/%B) 0.1/1 3/39 14/99.9 16/99.9; conditions: stereoisomer not certain

Row | Compound | LC retention time
1 | CCOc1ccccc1OS(=O)(=O)NC(=O)Nc1nc(OC)cc(OC)n1 | 9.32 min
2 | NC(=O)C(CCN1CCCCC1)(c1ccccc1)c1ccccc1 | 5.19 min
3 | CCOC(=O)C(SP(=S)(OC)OC)c1ccccc1 (stereo not given) | 10.7 min
4 | CN(C)c1ccc(C(c2ccccc2)c2ccc(N(C)C)cc2)cc1 | 13.7 min
5 | CCC(CN(C)C)(CN(C)C)OC(=O)c1ccccc1 | 6.07 min
6 | COc1ccccc1OCC(O)CO (stereo not given) | 5.11 min
7 | CC(=O)c1ccc(S(=O)(=O)NC(=O)NC2CCCCC2)cc1 | 7.72 min
8 | COc1ccc2c3c1OC1CC(O)C=CC31CCN(C)C2 (stereo not given) | 2.99 min
9 | CN(C)C(=O)Oc1cc(OC(=O)N(C)C)cc(C(O)CNC(C)(C)C)c1 (stereo not given) | 5.16 min
10 | NC1CC1c1ccccc1 (stereo not given) | 4.27 min
11 | COc1ccc(Oc2ccc(NC(=O)N(C)C)cc2)cc1 | 8.43 min
12 | CCCCCn1cc(C(=O)NC(C(N)=O)C(C)(C)C)c2ccccc21 (stereo not given) | 11.1 min
13 | COc1cc2c(cc1OC)CC(=O)N(CCCN(C)CC1Cc3cc(OC)c(OC)cc31)CC2 (stereo not given) | 5.02 min
14 | CC(C)C(O)(C(=O)OCC1=CCN2CCC(O)C12)C(C)O (stereo not given) | 3.65 min
15 | COc1ccc(C(=O)c2cn(CCCCCO)c3ccccc23)cc1 | 9.18 min
16 | CC#Cc1cc(C)nc(Nc2ccccc2)n1 | 10.2 min
17 | CCCc1nn(C)c2c(=O)[nH]c(-c3cc(C(=O)CN4CCN(CC=Cc5ccccc5)CC4)ccc3OCC)nc12 | 9.28 min
18 | O=C(O)c1cc(N=Nc2ccc(O)c(C(=O)O)c2)ccc1O | 5.66 min
19 | CSc1ccc2c(c1)N(CCC1CCCCN1C)c1ccccc1S2=O (stereo not given) | 6.64 min
20 | CN(Cc1cnc2nc(N)nc(N)c2n1)c1ccc(C(=O)NC(CCC(=O)O)C(=O)O)cc1 (stereo not given) | 3.96 min
21 | NC(=O)c1ccccc1Oc1ccccc1 | 7.79 min
22 | CN(C)CCC=C1c2ccccc2COc2ccc(CC(=O)O)cc21 | 6.89 min
23 | CCCC(C(=O)c1ccc2c(c1)OCO2)N1CCCC1 (stereo not given) | 5.18 min
24 | O=C(c1cccc2ccccc12)c1cn(CCCCO)c2ccccc12 | 9.56 min
25 | Nc1nc2c(ncn2COCCO)c(=O)[nH]1 | 2.34 min
26 | CC(O)CCCn1cc(C(=O)c2cccc3ccccc23)c2ccccc21 (stereo not given) | 10.1 min
27 | CCCCCCCCc1ccc(OCCO)cc1 | 12.4 min

Row | Compound | LC retention time
28 | CCCCc1oc2ccc(NS(C)(=O)=O)cc2c1C(=O)c1ccc(OCCCN(CCCC)CCCC)cc1 | 10.1 min
29 | CCc1cc(OC)c(CC(C)N)cc1OC (stereo not given) | 6.88 min
30 | CNC(=O)Oc1cc(C)c(C)c(C)c1 | 8.1 min
31 | COc1ccc2c3c1OC1C(=O)CCC4C(C2)N(C)CCC314 (stereo not given) | 3.69 min
32 | O=C(Nc1cccc(C2=NCCN2)c1)Nc1cccc(C2=NCCN2)c1 | 3.78 min
33 | CCc1cccc2c3c([nH]c12)C(CC)(CC(=O)O)OCC3 (stereo not given) | 10.6 min
34 | COP(=O)(NC(C)=O)SC (stereo not given) | 3.11 min
35 | CC(C)C1(NC(=O)C2CC3c4cccc5[nH]cc(c45)CC3N(C)C2)OC2(O)C3CCCN3C(=O)C(Cc3ccccc3)N2C1=O (stereo not given) | 8.17 min
36 | CNC(=O)Oc1cc(C)c(N(C)C)c(C)c1 | 9.3 min
37 | CC1C=CC=CCCC=CC=CC=CC=CC(OC2OC(C)C(O)C(N)C2O)CC2OC(O)(CC(O)C(O)CCC(O)CC(O)CC(O)CC(=O)OC(C)C(C)C1O)CC(O)C2C(=O)O (stereo not given) | 10.3 min
38 | CN(C)CCOCC(=O)NC12CC3CC(CC(C3)C1)C2 | 6.64 min
39 | COc1cc(OC)nc(Oc2cccc(Oc3nc(OC)cc(OC)n3)c2C(=O)O)n1 | 8.86 min
40 | Nc1ncn[nH]1 | 1.44 min
41 | CC(=O)OCC(=O)C12N=C(C)OC1CC1C3CCC4=CC(=O)C=CC4(C)C3C(O)CC12C (stereo not given) | 9.35 min
42 | CN(C)c1ccc(N=Nc2ccccc2)cc1 | 12.4 min
43 | CN1CCN(C(c2ccccc2)c2ccccc2)CC1 | 6.94 min
44 | O=C(Oc1cccc2cccnc12)c1cn(CC2CCCCC2)c2ccccc12 | 12.4 min
45 | CNC(=O)Oc1cccc2c1OC(C)(C)C2O (stereo not given) | 5.09 min
46 | Oc1ccc(C=Cc2cc(O)cc(O)c2)cc1 | 5.93 min
47 | CN1CCC23c4c5ccc(O)c4OC2C(=O)CCC3(O)C1C5 (stereo not given) | 2.75 min
48 | CC1=C(C)S(=O)(=O)CCS1(=O)=O | 3.73 min
49 | CC(CN1c2ccccc2Sc2ccccc21)N(C)C (stereo not given) | 7.53 min
50 | CN1C2CCC1CC(OC(c1ccccc1)c1ccccc1)C2 (stereo not given) | 7.97 min
51 | CC1CCC2N(C1)CC1C3CC4C(CC(O)C5CC(O)CCC54C)C3CCC1C2(C)O (stereo not given) | 6.44 min
52 | CCCCCCCCCc1ccc(OCCOCCO)cc1 | 13.8 min
53 | CCN(CC)CC#CCOC(=O)C(O)(c1ccccc1)C1CCCCC1 (stereo not given) | 8.92 min
54 | Cc1ccc(N=CN(C)C=Nc2ccc(C)cc2C)c(C)c1 | 13.3 min

Row | Compound | LC retention time
55 | CC(C(=O)c1ccccc1)N1CCCC1 (stereo not given) | 4.01 min
56 | CC(=O)Nc1ccc(S(=O)(=O)Nc2nccs2)cc1 | 4.24 min
57 | CCCCNc1cc(C(=O)O)cc(S(N)(=O)=O)c1Oc1ccccc1 | 7.83 min
58 | c1ccc2n[nH]nc2c1 | 4.76 min
59 | COc1cc(C(=O)OCCCN(C)CCN(C)CCCOC(=O)c2cc(OC)c(OC)c(OC)c2)cc(OC)c1OC | 7.54 min
60 | CCCCc1c(C)nc(NCC)nc1OS(=O)(=O)N(C)C | 10.5 min
61 | CC(C)CCOc1ccc(NC(=S)Nc2ccc(OCCC(C)C)cc2)cc1 | 13 min
62 | CNC(=O)Oc1cc(C)cc(C(C)C)c1 | 9.51 min
63 | CCCCCn1cc(C(=O)C23CC4CC(CC(C4)C2)C3)c2ccccc21 | 13.7 min
64 | CCOP(=O)(SC(C)CC)SC(C)CC (stereo not given) | 11.5 min
65 | CNc1nc(C)c(C)c(OC(=O)N(C)C)n1 | 5.89 min
66 | Cc1ccc(C(=O)c2ccc(CC(=O)O)n2C)cc1 | 7.89 min
67 | CN1CCN(CCC=C2c3ccccc3Sc3ccc(S(=O)(=O)N(C)C)cc32)CC1 | 8.38 min
68 | COc1cc2c(c(OC)c1OC)-c1ccc(OC)c(=O)cc1C(NC(C)=O)CC2 (stereo not given) | 6.43 min
69 | CC(CN1c2ccccc2Sc2cccnc21)N(C)C (stereo not given) | 6.47 min
70 | CCOC(=O)CC(SP(=S)(OC)OC)C(=O)OCC (stereo not given) | 9.59 min
71 | O=C(O)c1ccc2n[nH]nc2c1 | 3.81 min
72 | CCC(=O)C(CCN(C)C)(c1ccccc1)c1ccccc1 | 7.68 min
73 | Cc1nnc(-c2ccccc2)c(=O)[nH]1 | 5.29 min
74 | Nc1ccc(O)c(C(=O)O)c1 | 1.63 min
75 | COc1ccc2c3c1OC1C(O)CCC4C(C2)N(C)CCC341 (stereo not given) | 3.36 min
76 | COC(C)(C)CCCC(C)CC=CC(C)=CC(=O)OC(C)C (stereo not given) | 13.6 min
77 | O=[N+]([O-])c1cncn1CCN1CCOCC1 | 4.09 min
78 | CC(NCCC(c1ccccc1)c1ccccc1)c1ccccc1 (stereo not given) | 8.54 min
79 | CCCSc1cc(OC)c(CCN)cc1OC | 6.98 min
80 | CCC(=C(c1ccccc1)c1ccc(OCCN(C)C)cc1)c1ccccc1 | 11 min
